Assays:
Assay type in all cases: in vivo
Myzus persicae [1] = assay: Myzus test (MYZUPE spray treatment); conditions: application rate 500 g/ha, after 5 days, Chinese cabbage leaf discs
Summary of the method: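 Chinese cabbage leaf discs carrying all stages of green peach aphid sprayed with compound diluted in emulsifier-containing water to the desired concentration. Mortality scored as % after 5 days, where 100% means all aphids dead and 0% none.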

Myzus persicae [2] = assay: Myzus persicae test (MYZUPE Tau), leaf dipping; conditions: 20 ppm, 6dat
Procedure: Myzus Persicae Test (MYZUPE Tau) To produce a suitable preparation of active compound, 1 part by weight of active compound is mixed with the stated amount of solvent and emulsifier, and the concentrate is diluted with emulsifier-containing water to the desired concentration. Cabbage leaves (Brassica oleracea) which are heavily infested by the green peach aphid (Myzus persicae) are treated by dipping into the active compound preparation of the desired concentration. After the desired period of time, the kill in % is determined. 100% means that all of the aphids have been killed; 0% means that none of the aphids have been killed.

Myzus persicae [3] = assay: Myzus persicae test; hydroponic treatment (MYZUPE Sys); conditions: 20 ppm, 6dat
Procedure: Myzus Persicae Test; Hydroponic Treatment (MYZUPE Sys)
To produce a suitable preparation of active compound, 1 part by weight of active compound is mixed with the stated amounts of solvent and emulsifier, and the concentrate is diluted with water to the desired concentration.
The active compound preparation is mixed with water. The stated concentration refers to the amount of active compound per volume unit of water (mg/l=ppm). The treated water is filled into vessels containing a pea plant (Pisum sativum), and the plant is the infested with the green peach aphid (Myzus persicae).
After the desired period of time, the kill in % is determined 100% means that all of the aphids have been killed; 0% means that none of the aphids have been killed.

Setaria viridis = assay: Herbicidal pre-emergence action, SETVI; conditions: 20 g/ha
From the text: 1. Herbicidal Pre-Emergence Action
• Seeds of monocotyledonous and dicotyledonous weed plants and crop plants are placed in wood-fiber pots in sandy loam and covered with soil. The test compounds, formulated in the form of wettable powders (WP), are then, as an aqueous suspension with a water application rate of 600 l/ha (converted), with 0.2% of wetting agent added, applied at various dosages to the surface of the covering soil. • After the treatment, the pots are placed in a greenhouse and kept under good growth conditions for the test plants. The visual assessment of the damage to the test plants is carried out after a trial period of about 3 weeks by comparison with untreated controls (herbicidal activity in percent: 100% activity=the plants have died, 0% activity=like control plants). • In addition to the compounds mentioned above, the following compounds show an activity of 90-100% against Alopecurus myosuroides, Digitaria sanguinalis, Echinocloa crus-galli, Lolium multiflorum, Setaria viridis and Sorghum halapense when applied by the pre-emergence method at 320 g/ha of a.i.: I-a-2, I-a-10, I-a-11, I-a-12.
1. Herbicidal Pre-Emergence Action (Pre)
• Seeds of monocotyledonous and dicotyledonous weed plants and crop plants are placed in wood-fiber pots in sandy loam and covered with soil. The test compounds, formulated in the form of wettable powders (WP) or emulsion concentrates (EC), are then, as an aqueous suspension with a water application rate of 600-800 l/ha (converted), with 0.1-0.2% of wetting agent added, applied at various dosages to the surface of the covering soil. • After the treatment, the pots are placed in a greenhouse and kept under good growth conditions for the test plants. […] Herbicidal Post-Emergence Action (Post) • Seeds of monocotyledonous and dicotyledonous weed and crop plants are placed in sandy loam in wood-fiber pots, covered with soil and cultivated in a greenhouse under good growth conditions. 2-3 weeks (stages 10-13 according to the BBCH scale) after sowing, the test plants are treated at a height of 5-10 cm. The test compounds, formulated as wettable powders (WP) or emulsion concentrates (EC), are then, with a water application rate of 600-800 l/ha (converted), with 0.1-0.2% of wetting agent added, sprayed at various dosages onto the green parts of the plants.
AVEFA: Avena fatua LOLMU: Lolium multiflorum SETVI: Setaria viridis CHEAL: Chenopodium album VIOTR: Viola tricolor VERPE: Veronica persica ORYSA: Oryza sativa TRZAS: Triticum aestivum ZEAMX: Zea mays ALOMY: Alopecurus myosuroides DIGSA: Digitaria sanguinalis ECHCG: Echinocloa crus-galli SORHA: Sorghum halepense AVESA: Avena sativa AMARE: Amaranthus retroflexus SINAL: Sinapis alba STEME: Stellaria media

Alopecurus myosuroides = assay: Herbicidal post-emergence action, ALOMY; conditions: 20 g/ha
Summary of the method: (§1)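 Weeds sown in sandy loam, grown in greenhouse 2–3 weeks and treated post-emergence at one-leaf stage (or BBCH 10–13, 5–10 cm) with WP/EC formulations sprayed at various dosages (600–800 l/ha water, 0.1–0.2% wetting agent). Visual rating after about 3 weeks as % activity versus untreated (100% = dead).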

Echinocloa crus-galli = assay: Herbicidal post-emergence action, ECHCG; conditions: 20 g/ha
Summary of the method: as §1

CCOC(=O)OC1=C(c2c(C)cc(I)cc2CC)C(=O)C2(CCC(OC)CC2)N1 (mixture of isomers) [I-b-2]
effect in % (aphids killed) (Myzus persicae [1]): 100%
% Activity MYZUPE tau (Myzus persicae [2]): 90%
% Activity MYZUPE sys (Myzus persicae [3]): 99%
% Activity SETVI (Setaria viridis): 70%
% Activity ALOMY (Alopecurus myosuroides): 90%
% Activity ECHCG (Echinocloa crus-galli): 70%

— US9204640B2, “2-acyloxy-pyrrolin-4-ones” (BAYER INTELLECTUAL PROPERTY GMBH, priority 2011, dated 2015)
